# Source: ChEMBL document CHEMBL4699440, “Comprehensive review on the anti-bacterial activity of 1,2,3-triazole hybrids” (Eur J Med Chem, 2019)
# Tests used:
# Escherichia coli [1] = assay: Antibacterial activity against Escherichia coli JM109 after overnight incubation by CLSI M7-A9 based method; type: functional
# Escherichia coli [2] = assay: Antibacterial activity against Escherichia coli ATCC 25922 after overnight incubation by CLSI M7-A9 based method; type: functional
# Enterococcus faecalis [3] = assay: Antibacterial activity against Enterococcus faecalis ATCC 29212 after overnight incubation by CLSI M7-A9 based method; type: functional
# Staphylococcus aureus [4] = assay: Antibacterial activity against Staphylococcus aureus CIP 6525 after overnight incubation by CLSI M7-A9 based method; type: functional
# Salmonella enterica = assay: Antibacterial activity against Salmonella enterica MTCC 3224 incubated overnight by broth dilution technique; type: functional, organism-based
# Pseudomonas aeruginosa [5] = assay: Antibacterial activity against Pseudomonas aeruginosa MTCC 2453 incubated overnight by broth dilution technique; type: functional, organism-based
# Enterococcus faecalis [6] = assay: Antibacterial activity against Enterococcus faecalis MTCC 439 incubated overnight by broth dilution technique; type: functional, organism-based
# Streptococcus pneumoniae = assay: Antibacterial activity against Streptococcus pneumoniae MTCC 655 incubated overnight by broth dilution technique; type: functional, organism-based
# Klebsiella pneumoniae = assay: Antibacterial activity against Klebsiella pneumoniae ATCC 700603 incubated overnight by broth dilution technique; type: functional, organism-based
# Escherichia coli [7] = assay: Antibacterial activity against Escherichia coli ATCC 25922 incubated overnight by broth dilution technique; type: functional, organism-based
# Bacillus spizizenii = assay: Antibacterial activity against Bacillus subtilis ATCC 6633 incubated for 24 hrs by broth dilution method; type: functional
# Escherichia coli [8] = assay: Antibacterial activity against Escherichia coli ATCC 25922 incubated for 24 hrs by broth dilution method; type: functional
# Staphylococcus aureus [9] = assay: Antibacterial activity against Staphylococcus aureus ATCC 9144 incubated for 24 hrs by broth dilution method; type: functional
# Proteus vulgaris = assay: Antibacterial activity against Proteus vulgaris ATCC […] incubated for 24 hrs by broth dilution method; type: functional
# Candida albicans [10] = assay: Antifungal activity against Candida albicans ATCC 50193 incubated for 24 hrs by microdilution method; type: functional
# Aspergillus brasiliensis [11] = assay: Antifungal activity against Aspergillus brasiliensis ATCC 16404 incubated for 24 hrs by microdilution method; type: functional
# Aspergillus brasiliensis [12] = assay: Antifungal activity against Aspergillus brasiliensis MTCC 1344 incubated for 7 days by microdilution method; type: functional; details: MTCC 1344, 168 h, time 7 day
# Candida albicans [13] = assay: Antifungal activity against Candida albicans MTCC 227 incubated for 2 days by microdilution method; type: functional; details: MTCC 227, 48 h, time 2 day
# Aspergillus niger [14] = assay: Antibacterial activity against Aspergillus niger MTCC 8189 by serial dilution method; type: functional
# Candida albicans [15] = assay: Antibacterial activity against Candida albicans MTCC 227 by serial dilution method; type: functional
# Candida albicans [16] = assay: Antifungal activity against Candida albicans ATCC 2091 incubated for 24 hrs by broth microdilution method; type: functional
# Aspergillus niger [17] = assay: Antibacterial activity against Aspergillus niger ATCC 9029 incubated for 24 hrs by broth microdilution method; type: functional
# Bacillus cereus [18] = assay: Antibacterial activity against Bacillus cereus ATCC 10876 incubated for 24 hrs by microdilution method; type: functional
# Enterococcus faecalis [19] = assay: Antibacterial activity against Enterococcus faecalis ATCC 29212 incubated for 24 hrs by microdilution method; type: functional
# Staphylococcus aureus [20] = assay: Antibacterial activity against Staphylococcus aureus ATCC 25923 incubated for 24 hrs by microdilution method; type: functional
# Proteus mirabilis = assay: Antibacterial activity against Proteus mirabilis ATCC 35659 incubated for 24 hrs by microdilution method; type: functional
# Escherichia coli [21] = assay: Antibacterial activity against Escherichia coli ATCC 25922 incubated for 24 hrs by microdilution method; type: functional
# Pseudomonas aeruginosa [22] = assay: Antibacterial activity against Pseudomonas aeruginosa ATCC 27853 incubated for 24 hrs by microdilution method; type: functional
# Staphylococcus aureus [23] = assay: Antibacterial activity against Staphylococcus aureus ATCC 29737 incubated for 24 hrs; type: functional
# Micrococcus luteus = assay: Antibacterial activity against Micrococcus Luteus ATCC 398 incubated for 24 hrs; type: functional
# Bacillus cereus [24] = assay: Antibacterial activity against Bacillus cereus ATCC 6630 incubated for 24 hrs; type: functional
# Escherichia coli [25] = assay: Antibacterial activity against Escherichia coli NCIM 2256 incubated for 24 hrs; type: functional
# Pseudomonas fluorescens = assay: Antibacterial activity against Pseudomonas fluorescens NCIM 2173 incubated for 24 hrs; type: functional
# [26] = test system: Sphingomonas paucimobilis; assay: Antibacterial activity against Flavobacterium devorans ATCC 10829 incubated for 24 hrs; type: functional
smiles,measurement,setting,value
C[C@H](c1ccccc1)N(CC(N)=O)C(=O)CN(C(=O)CN(Cc1cn(CC2CCCCC2)nn1)C(=O)CN(C(=O)CN(C(=O)CNCc1cn(CC2CCCCC2)nn1)[C@H](C)c1ccccc1)[C@H](C)c1ccccc1)[C@H](C)c1ccccc1,MIC,Escherichia coli [1],> 1.6 µg/mL
same,MIC,Escherichia coli [2],> 1.6 µg/mL
same,MIC,Enterococcus faecalis [3],> 1.6 µg/mL
same,MIC,Staphylococcus aureus [4],> 1.6 µg/mL
Clc1ccc(-n2cc(COc3cccc4cccnc34)nn2)cc1,IC50,Salmonella enterica,106 µg/mL
same,IC50,Pseudomonas aeruginosa [5],106 µg/mL
same,IC50,Enterococcus faecalis [6],106 µg/mL
same,IC50,Streptococcus pneumoniae,106 µg/mL
same,IC50,Klebsiella pneumoniae,106 µg/mL
same,IC50,Escherichia coli [7],106 µg/mL
O=C(/C=C1\C(=O)N(Cc2cn(Cc3ccccc3)nn2)c2ccc(Br)cc21)c1cc(Cl)cc(Cl)c1OCc1cn(Cc2ccccc2)nn1,MIC,Bacillus spizizenii,1.56 µg/mL
same,MIC,Escherichia coli [8],1.56 µg/mL
same,MIC,Staphylococcus aureus [9],1.56 µg/mL
same,MIC,Proteus vulgaris,1.56 µg/mL
c1ccc(-n2cc(COc3cccc4cccnc34)nn2)cc1,IC50,Salmonella enterica,106 µg/mL
same,IC50,Pseudomonas aeruginosa [5],106 µg/mL
same,IC50,Enterococcus faecalis [6],106 µg/mL
same,IC50,Streptococcus pneumoniae,106 µg/mL
same,IC50,Klebsiella pneumoniae,106 µg/mL
same,IC50,Escherichia coli [7],106 µg/mL
C[C@H](c1ccccc1)N(CC(N)=O)C(=O)CN(C(=O)CN(Cc1cn(CCN)nn1)C(=O)CN(C(=O)CN(C(=O)CN(Cc1cn(CCN)nn1)C(=O)CN(C(=O)CN(C(=O)CN(Cc1cn(CCN)nn1)C(=O)CN(C(=O)CN(C(=O)CNCc1cn(CCN)nn1)[C@H](C)c1ccccc1)[C@H](C)c1ccccc1)[C@H](C)c1ccccc1)[C@H](C)c1ccccc1)[C@H](C)c1ccccc1)[C@H](C)c1ccccc1)[C@H](C)c1ccccc1,MIC,Escherichia coli [1],> 1.6 µg/mL
same,MIC,Escherichia coli [2],> 1.6 µg/mL
same,MIC,Enterococcus faecalis [3],> 1.6 µg/mL
same,MIC,Staphylococcus aureus [4],> 1.6 µg/mL
C[C@H](c1ccccc1)N(CC(N)=O)C(=O)CN(C(=O)CN(Cc1cn(CCN)n[n+]1C)C(=O)CN(C(=O)CN(C(=O)CN(Cc1cn(CCN)n[n+]1C)C(=O)CN(C(=O)CN(C(=O)CNCc1cn(CCN)n[n+]1C)[C@H](C)c1ccccc1)[C@H](C)c1ccccc1)[C@H](C)c1ccccc1)[C@H](C)c1ccccc1)[C@H](C)c1ccccc1,MIC,Escherichia coli [1],> 1.6 µg/mL
same,MIC,Escherichia coli [2],> 1.6 µg/mL
same,MIC,Enterococcus faecalis [3],> 1.6 µg/mL
same,MIC,Staphylococcus aureus [4],> 1.6 µg/mL
Cc1ccc(-n2cc(COc3cccc4cccnc34)nn2)cc1,IC50,Salmonella enterica,113 µg/mL
same,IC50,Pseudomonas aeruginosa [5],113 µg/mL
same,IC50,Enterococcus faecalis [6],113 µg/mL
same,IC50,Streptococcus pneumoniae,113 µg/mL
same,IC50,Klebsiella pneumoniae,113 µg/mL
same,IC50,Escherichia coli [7],113 µg/mL
OC(Cn1cncn1)(Cn1cncn1)c1ccc(F)cc1F [FLUCONAZOLE],MIC,Candida albicans [10],1 µg/mL
same,MIC,Aspergillus brasiliensis [11],4 µg/mL
same,MIC,Aspergillus brasiliensis [12],0.0716 µM
same,MIC,Candida albicans [13],0.0408 µM
same,MIC,Aspergillus niger [14],5.1 µM
same,MIC,Candida albicans [15],5.1 µM
same,MIC,Candida albicans [16],8 µg/mL
same,MIC,Aspergillus niger [17],8 µg/mL
C[C@H](c1ccccc1)N(CC(N)=O)C(=O)CN(C(=O)CN(Cc1cn(CC2CCCCC2)n[n+]1C)C(=O)CN(C(=O)CN(C(=O)CNCc1cn(CC2CCCCC2)n[n+]1C)[C@H](C)c1ccccc1)[C@H](C)c1ccccc1)[C@H](C)c1ccccc1,MIC,Escherichia coli [1],> 1.6 µg/mL
same,MIC,Escherichia coli [2],> 1.6 µg/mL
same,MIC,Enterococcus faecalis [3],> 1.6 µg/mL
same,MIC,Staphylococcus aureus [4],> 1.6 µg/mL
C[C@H](c1ccccc1)N(CC(N)=O)C(=O)CN(C(=O)CN(Cc1cn(CCN)n[n+]1C)C(=O)CN(C(=O)CN(C(=O)CNCc1cn(CCN)n[n+]1C)[C@H](C)c1ccccc1)[C@H](C)c1ccccc1)[C@H](C)c1ccccc1,MIC,Escherichia coli [1],> 1.6 µg/mL
same,MIC,Escherichia coli [2],> 1.6 µg/mL
same,MIC,Enterococcus faecalis [3],> 1.6 µg/mL
same,MIC,Staphylococcus aureus [4],> 1.6 µg/mL
CCCCCCCCCCCCn1nnc(-c2n[nH]c(=S)n2N)c1-c1n[nH]c(=S)n1N,MIC,Bacillus cereus [18],1 µg/mL
same,MIC,Enterococcus faecalis [19],1 µg/mL
same,MIC,Staphylococcus aureus [20],1 µg/mL
same,MIC,Proteus mirabilis,1 µg/mL
same,MIC,Escherichia coli [21],1 µg/mL
same,MIC,Pseudomonas aeruginosa [22],1 µg/mL
same,MIC,Candida albicans [10],1 µg/mL
same,MIC,Aspergillus brasiliensis [11],1 µg/mL
CCCCCCCCn1nnc(-c2n[nH]c(=S)n2-c2ccccc2)c1-c1n[nH]c(=S)n1-c1ccccc1,MIC,Bacillus cereus [18],2 µg/mL
same,MIC,Enterococcus faecalis [19],2 µg/mL
same,MIC,Staphylococcus aureus [20],2 µg/mL
same,MIC,Proteus mirabilis,2 µg/mL
same,MIC,Escherichia coli [21],2 µg/mL
same,MIC,Pseudomonas aeruginosa [22],2 µg/mL
same,MIC,Candida albicans [10],2 µg/mL
same,MIC,Aspergillus brasiliensis [11],2 µg/mL
O=C(N[C@H](CO)[C@H](O)c1ccc([N+](=O)[O-])cc1)C(Cl)Cl [CHLORAMPHENICOL],MIC,Staphylococcus aureus [23],2 µg/mL
same,MIC,Micrococcus luteus,2 µg/mL
same,MIC,Bacillus cereus [24],2 µg/mL
same,MIC,Escherichia coli [25],2 µg/mL
same,MIC,Pseudomonas fluorescens,2 µg/mL
same,MIC,[26],2 µg/mL
same,MIC,Bacillus spizizenii,1.56 µg/mL
same,MIC,Escherichia coli [8],1.56 µg/mL
same,MIC,Staphylococcus aureus [9],1.56 µg/mL
same,MIC,Proteus vulgaris,1.56 µg/mL
